The values below are quoted from earlier work in patent publication US12644083B2, “Dual circulation microphysiological system” (CN Bio Innovations Limited, priority 2019, dated 2026).

In this data set the test system is primary human hepatocytes. Particulars: for rate of metabolism (in words): general statement: considered to be slowly metabolised; for test phase required to give measurable changes (metabolism): single loop 3D liver scaffold system.

Take `CC(C)N(CCC(C(N)=O)(c1ccccc1)c1ccccn1)C(C)C` (stereo not shown) [disopyramide]: the “rate of metabolism (in words)” value is recorded as “slowly metabolised” and the “test phase required to give measurable changes (metabolism)” value is listed as 5 days.

Take `CC(C)(C)NC[C@H](O)COc1nsnc1N1CCOCC1` [timolol]: the “rate of metabolism (in words)” value is on record as “slowly metabolised” and the “test phase required to give measurable changes (metabolism)” value is 5 days.
